Biological target: T1, human PF4 (Homo sapiens, UniProt P02776)
T1 construct: PF4 is a 70 amino acid, lysine-rich 7.8 kDa platelet-specific protein; made in house; host or cells: Escherichia coli BL21DE3 pLysS (pT7-7) and/or Drosophila S2 cells
T1 sequence (P02776 32-101): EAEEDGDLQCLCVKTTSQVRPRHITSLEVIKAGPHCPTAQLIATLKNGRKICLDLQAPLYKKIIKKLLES
Experiment: Inhibition of PF4 tetramer formation (BS3 cross-linking, SDS-PAGE)
Format: biochemical
Conditions: for inhibition at 5 µM: 5 μM inhibitor; for inhibition at 5 µM / inhibition at 10 µM / inhibition at 1 µM / inhibition at 3 µM: read-out: % inhibition of PF4 tetramer formation at single concentration of inhibitor; for inhibition at 10 µM: 10 μM inhibitor (column A); for IC50: read-out: IC50 of PF4 tetramer formation inhibition
Outline: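 Recombinant human wild-type PF4 (E. coli-expressed, heparin-purified), 10 μg/ml in PBS, incubated with compound 15 min at 37° C or 60 min at room temperature, then cross-linked with 0.2 mM BS3 for 30 min at room temperature. Reducing 12% SDS-PAGE; bands quantified as % tetramer, trimer, dimer, monomer versus compound-free control.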

Row | SMILES | inhibition at 5 µM [%] | inhibition at 10 µM [%] | IC50 [µM] | inhibition at 1 µM (1 μM inhibitor) [%] | inhibition at 3 µM (3 μM inhibitor (column A)) [%] | further results
1 | C[C@H]1C[C@@H](C(=O)C2C(=O)c3ccc(C(=O)c4ccc5c(c4)C(=O)C(C(=O)[C@@H]4C[C@H](C)CN4C(=O)OC(C)(C)C)C5=O)cc3C2=O)N(C(=O)OC(C)(C)C)C1 (stereo partly drawn) [Example 132, tert-butyl (2S,4S)-2-(5-{2-[(2S,4S)-1-[(tert-butoxy)carbonyl]-4-methylpyrrolidine-2-carbonyl]-1,3-dioxo-2,3-dihydro-1H-indene-5-carbonyl}-1,3-dioxo-2,3-dihydro-1H-indene-2-carbonyl)-4-methylpyrrolidine-1-carboxylate] | 79 | 88 | 3.5 | – | – | –
2 | CC1(C)O[C@H]2O[C@@H](/C(O)=C3\C(=O)c4ccc(C(=O)c5ccc6c(c5)C(=O)/C(=C(\O)[C@@H]5O[C@@H]7OC(C)(C)O[C@@H]7[C@H]7OC(C)(C)O[C@@H]75)C6=O)cc4C3=O)[C@H]3OC(C)(C)O[C@@H]3[C@H]2O1 [Example 135, 5-{1,3-dioxo-2-[(1S,2R,6R,8R,9S)-4,4,11,11-tetramethyl-3,5,7,10,12-pentaoxatricyclo[7.3.0.0^2,^6]dodecane-8-carbonyl]-2,3-dihydro-1H-indene-5-carbonyl}-2-[(1S,2R,6R,8R,9S)-4,4,11,11-tetramethyl-3,5,7,10,12-pentaoxatricyclo[7.3.0.0^2,^6]dodecane-8-carbonyl]-2,3-dihydro-1H-indene-1,3-dione] | 79 | 88 | 3.8 | – | – | –
3 | O=C(c1ccc2c(c1)C(=O)C(C(=O)NCC1CCOC1)C2=O)c1ccc2c(c1)C(=O)C(C(=O)NCC1CCOC1)C2=O (stereo not shown) [Example 363, 5-(1,3-dioxo-2-{[(oxolan-3-yl)methyl]carbamoyl}-2,3-dihydro-1H-indene-5-carbonyl)-1,3-dioxo-N-[(oxolan-3-yl)methyl]-2,3-dihydro-1H-indene-2-carboxamide] | – | – | 3.96 | 29 | 63 | –
4 | O=C(c1ccc2c(c1)C(=O)C(C(=O)Cc1ccncc1)C2=O)c1ccc2c(c1)C(=O)C(C(=O)Cc1ccncc1)C2=O (stereo not shown) [Example 239, 5-{1,3-dioxo-2-[2-(pyridin-4-yl)acetyl]-2,3-dihydro-1H-indene-5-carbonyl}-2-[2-(pyridin-4-yl)acetyl]-2,3-dihydro-1H-indene-1,3-dione] | – | – | – | – | 100 | –
5 | CC(C)(C)OC(=O)N1CSC[C@@H]1C(=O)C1C(=O)c2ccc(S(=O)(=O)c3ccc4c(c3)C(=O)C(C(=O)[C@H]3CSCN3C(=O)OC(C)(C)C)C4=O)cc2C1=O (stereo partly drawn) [Example 221, tert-butyl (4S)-4-[5-({2-[(4S)-3-[(tert-butoxy)carbonyl]-1,3-thiazolidine-4-carbonyl]-1,3-dioxo-2,3-dihydro-1H-inden-5-yl}sulfonyl)-1,3-dioxo-2,3-dihydro-1H-indene-2-carbonyl]-1,3-thiazolidine-3-carboxylate] | 92 | 97 | 2.3 | – | – | –
6 | CC(C)(C)OC(=O)NCC(=O)C1C(=O)c2ccc(C#Cc3ccc4c(c3)C(=O)C(C(=O)CNC(=O)OC(C)(C)C)C4=O)cc2C1=O (stereo not shown) [Example 319, tert-butyl N-[2-(5-{2-[2-(2-{[(tert-butoxy)carbonyl]amino}acetyl)-1,3-dioxo-2,3-dihydro-1H-inden-5-yl]ethynyl}-1,3-dioxo-2,3-dihydro-1H-inden-2-yl)-2-oxoethyl]carbamate] | – | – | – | 13 | 22 | –
7 | O=C1CC(=O)c2cc(Oc3ccc4c(c3)C(=O)CC4=O)ccc21 [Example 7, 5-(2,3-dihydro-1,3dioxo-1h-inden-6-yloxy)-2,3-dihydro-1,3-dioxo-1h-indene] | – | – | 1.12 | – | – | –
8 | CN(CC(=O)C1C(=O)c2ccc(C#Cc3ccc4c(c3)C(=O)C(C(=O)CN(C)C(=O)OC(C)(C)C)C4=O)cc2C1=O)C(=O)OC(C)(C)C (stereo not shown) [Example 320, tert-butyl N-[2-(5-{2-[2-(2-{[(tert-butoxy)carbonyl](methyl)amino}acetyl)-1,3-dioxo-2,3-dihydro-1H-inden-5-yl]ethynyl}-1,3-dioxo-2,3-dihydro-1H-inden-2-yl)-2-oxoethyl]-N-methylcarbamate] | – | – | – | 12 | 26 | –
9 | COC(=O)c1ccc(NC(=O)C2C(=O)c3ccc(S(=O)(=O)c4ccc5c(c4)C(=O)C(C(=O)Nc4ccc(C(=O)OC)cc4)C5=O)cc3C2=O)cc1 (stereo not shown) [Example 98, methyl 4-{5-[(2-{[4-(methoxycarbonyl)phenyl]carbamoyl}-1,3-dioxo-2,3-dihydro-1H-inden-5-yl)sulfonyl]-1,3-dioxo-2,3-dihydro-1H-indene-2-amido}benzoate] | 100 | 100 | – | – | – | –
10 | COCC(=O)C1C(=O)c2ccc(Oc3ccc4c(c3)C(=O)C(C(=O)COC)C4=O)cc2C1=O (stereo not shown) [Example 249, 2-(2-methoxyacetyl)-5-{[2-(2-methoxyacetyl)-1,3-dioxo-2,3-dihydro-1H-inden-5-yl]oxy}-2,3-dihydro-1H-indene-1,3-dione] | – | – | 3 | 19 | 36 | –
11 | COc1ccc(NC(=O)C2C(=O)c3ccc(S(=O)(=O)c4ccc5c(c4)C(=O)C(C(=O)Nc4ccc(OC)cc4OC)C5=O)cc3C2=O)c(OC)c1 (stereo not shown) [Example 94, N-(2,4-dimethoxyphenyl)-5-({2-[(2,4-dimethoxyphenyl)carbamoyl]-1,3-dioxo-2,3-dihydro-1H-inden-5-yl}sulfonyl)-1,3-dioxo-2,3-dihydro-1H-indene-2-carboxamide] | 33 | 62 | – | – | – | –
12 | CC(=O)OC[C@H]1O[C@@H](OC(C)=O)[C@H](NC(=O)C2C(=O)c3ccc(S(=O)(=O)c4ccc5c(c4)C(=O)C(C(=O)N[C@H]4[C@H](OC(C)=O)O[C@H](COC(C)=O)[C@@H](OC(C)=O)[C@@H]4OC(C)=O)C5=O)cc3C2=O)[C@@H](OC(C)=O)[C@@H]1OC(C)=O (stereo partly drawn) [Example 400, [(2R,3S,4R,5R,6S)-3,4,6-tris(acetyloxy)-5-{5-[(1,3-dioxo-2-{[(2S,3R,4R,5S,6R)-2,4,5-tris(acetyloxy)-6-[(acetyloxy)methyl]oxan-3-yl]carbamoyl}-2,3-dihydro-1H-inden-5-yl)sulfonyl]-1,3-dioxo-2,3-dihydro-1H-indene-2-amido}oxan-2-yl]methyl acetate] | – | – | – | 17 | 21 | –
13 | CO[C@@H](C)C(=O)C1C(=O)c2ccc(C(=O)c3ccc4c(c3)C(=O)C(C(=O)[C@H](C)OC)C4=O)cc2C1=O (stereo partly drawn) [Example 236, 2-[(2S)-2-methoxypropanoyl]-5-{2-[(2S)-2-methoxypropanoyl]-1,3-dioxo-2,3-dihydro-1H-indene-5-carbonyl}-2,3-dihydro-1H-indene-1,3-dione] | – | – | – | 20 | 25 | –
14 | CC(C)[C@@H](N)C(=O)C1C(=O)c2ccc(Oc3ccc4c(c3)C(=O)C(C(=O)[C@H](N)C(C)C)C4=O)cc2C1=O (stereo partly drawn) [Example 351, 2-[(2R)-2-amino-3-methylbutanoyl]-5-({2-[(2R)-2-amino-3-methylbutanoyl]-1,3-dioxo-2,3-dihydro-1H-inden-5-yl}oxy)-2,3-dihydro-1H-indene-1,3-dione] | – | – | – | 12 | 21 | –
15 | COC(=O)C(C)(C)CC(=O)C1C(=O)c2ccc(C(=O)c3ccc4c(c3)C(=O)C(C(=O)CC(C)(C)C(=O)OC)C4=O)cc2C1=O (stereo not shown) [Example 219] | 68 | 91 | 5 | – | – | –
16 | CC(=O)NCC(=O)C1C(=O)c2ccc(Oc3ccc4c(c3)C(=O)C(C(=O)CNC(C)=O)C4=O)cc2C1=O (stereo not shown) [Example 246, N-[2-(5-{[2-(2-acetamidoacetyl)-1,3-dioxo-2,3-dihydro-1H-inden-5-yl]oxy}-1,3-dioxo-2,3-dihydro-1H-inden-2-yl)-2-oxoethyl]acetamide] | – | – | 3 | – | – | % inhibition of PF4 tetramer formation at single concentration of inhibitor (1 μM inhibitor, 1 µM): 12%; % inhibition of PF4 tetramer formation at single concentration of inhibitor (3 μM inhibitor (column A), 3 µM): 30%
17 | O=C(NCC1CCOC1)C1C(=O)c2ccc(S(=O)(=O)c3ccc4c(c3)C(=O)C(C(=O)NCC3CCOC3)C4=O)cc2C1=O (stereo not shown) [Example 362, 5-[(1,3-dioxo-2-{[(oxolan-3-yl)methyl]carbamoyl}-2,3-dihydro-1H-inden-5-yl)sulfonyl]-1,3-dioxo-N-[(oxolan-3-yl)methyl]-2,3-dihydro-1H-indene-2-carboxamide] | – | – | – | 33 | 53 | –
18 | O=C(NCCc1cccc(Cl)c1)C1C(=O)c2ccc(S(=O)(=O)c3ccc4c(c3)C(=O)C(C(=O)NCCc3cccc(Cl)c3)C4=O)cc2C1=O (stereo not shown) [Example 84, N-[2-(3-chlorophenyl)ethyl]-5-[(2-{[2-(3-chlorophenyl)ethyl]carbamoyl}-1,3-dioxo-2,3-dihydro-1H-inden-5-yl)sulfonyl]-1,3-dioxo-2,3-dihydro-1H-indene-2-carboxamide] | – | – | 3 | – | – | –
19 | COc1ccc(NC(=O)C2C(=O)c3ccc(S(=O)(=O)c4ccc5c(c4)C(=O)C(C(=O)Nc4ccc(OC)cc4)C5=O)cc3C2=O)cc1 (stereo not shown) [Example 35, 5,5′-sulphonylbis(1,3-dioxo-indan-2-carboxylic acid (4-methoxyphenyl)-amide)] | 54 | 77 | 2.85 | – | – | –
20 | CC(C)C(=O)NCC(=O)C1C(=O)c2ccc(S(=O)(=O)c3ccc4c(c3)C(=O)C(C(=O)CNC(=O)C(C)C)C4=O)cc2C1=O (stereo not shown) [Example 191, 2-methyl-N-{2-[5-({2-[2-(2-methylpropanamido)acetyl]-1,3-dioxo-2,3-dihydro-1H-inden-5-yl}sulfonyl)-1,3-dioxo-2,3-dihydro-1H-inden-2-yl]-2-oxoethyl}propanamide] | 74 | 79 | ~3 | – | – | –

Reference: patent US20250281424A1 (New York Blood Center, Inc, priority 2020, published 2025)
